Article PMC6272685, “Docking and Antiherpetic Activity of 2-Aminobenzo[de]-isoquinoline-1,3-diones” (Molecules, 2015)
Converted amounts (≈) assume the structure as drawn. “Also recorded” adds a separate entry of the source.

The compounds below were run on HSV-2 (assay: cytopathic effect inhibition assay against HSV-2 in Vero cells). Details: not given.
Type: cell-based, herpes simplex virus 2 (G strain)
Procedure: (§1) Vero cells (derived from the kidney of a normal African green monkey) were obtained from the American Type Culture Collection (ATCC, Manassas, VA, USA). The viral strains used were GHSV-UL46 for HSV-1 and the G strain for HSV-2. The Vero cells were propagated in Dulbecco’s modified Eagle’s medium (DMEM) supplemented with 10% heat-inactivated foetal bovine serum (FBS), 1% L-glutamine, HEPES buffer and 50 µg/mL gentamycin. All cells were maintained at 37 °C in a humidified atmosphere with 5% CO2 and were subcultured two times a week.
(§2) The antiviral screening was performed using a cytopathic effect inhibition assay at the Regional Center for Mycology and Biotechnology (RCMB, Al-Azhar University, Cairo, Egypt). This assay was selected to show specific inhibition of a biological function, that is, a cytopathic effect in susceptible mammalian cells. In brief, monolayers of 10,000 Vero cells adhering at the bottom of the wells in a 96-well microtiter plate were incubated for 24 h at 37 °C in a humidified incubator with 5% CO2. The plates were washed with fresh DMEM and challenged with 10^4 doses of herpes simplex 1 or 2 virus, and then the cultures were simultaneously treated with two-fold serial dilutions of the tested compound, starting from 500 µg/mL and going up to about 2 µg/mL (500, 250, 125, 62.5, …, 1.95 µg/mL) in a fresh maintenance medium; following this, they were incubated at 37 °C for 48 h. An infection control, as well as an untreated Vero cell control were made in the absence of tested compounds. […] Antiviral activity was determined by the inhibition of the cytopathic effect compared to a control, that is, the protection offered by the tested compound to the cells was scored. Three independent experiments were assessed, each containing four replicates per treatment.
(§3) After the incubation period, the media was aspirated, and then the cells were stained with a 1% crystal violet solution for 30 min. Thereafter, all excess stain was removed by rinsing the plates with tap water. The plates were allowed to dry, and then glacial acetic acid (30%) was added to all wells and mixed thoroughly. The absorbance of the plates was measured after gentle shaking on a microplate reader (Tecan Inc., Morrisville, NC, USA), at 590 nm. The viral inhibition rate was calculated as follows: [(ODtv − ODcv)/(ODcd − ODcv)] × 100% where ODtv, ODcv and ODcd indicate the absorbance of the tested compounds with virus-infected cells, the absorbance of the virus control and the absorbance of the cell control, respectively.
EC50 values were determined directly from the curve obtained by plotting the inhibition of the virus yield against the concentration of the samples. The selectivity index (SI) was calculated from the ratio of CC50 to EC50 in order to determine whether each compound had sufficient antiviral activity that exceeded its level of toxicity. This index is referred to as a therapeutic index, and it was also used to determine whether a compound warranted further study.
For activity class in terms of SI-values (HSV-1) in this document: key: inactive (SI < 2); active (SI ≥ 2).
For activity class in terms of SI-values (HSV-2) in this document: key: inactive (SI < 2); active (SI ≥ 2).

Compound | activity class in terms of SI-values (HSV-2)
O=C1c2cccc3cccc(c23)C(=O)N1N=Cc1ccco1 [Compound 14] | active
O=C1c2cccc3cccc(c23)C(=O)N1N=Cc1ccsc1 [Compound 15] | active

Same assay, conditions: Vero cells, 48 h, cytopathic effect inhibition

Compound | HSV-2 EC50 [µg/mL]
CN(C)c1ccc(C=NN2C(=O)c3cccc4cccc(c34)C2=O)cc1 [Compound 8] | >500
O=C1c2cccc3cccc(c23)C(=O)N1N=Cc1cccnc1 [Compound 13] | 308 ± 7.1
CC=NN1C(=O)c2cccc3cccc(c23)C1=O [Compound 1] | >500
O=C1c2cccc3cccc(c23)C(=O)N1n1c(=O)c2cc3c(=O)n(N4C(=O)c5cccc6cccc(c56)C4=O)c(=O)c3cc2c1=O [Compound 24] | >500
O=C1c2cccc3cccc(c23)C(=O)N1N=Cc1ccc(O)cc1 [Compound 7] | 220 ± 3.8
CCC=NN1C(=O)c2cccc3cccc(c23)C1=O [Compound 2] | >500
O=C1c2cccc3cccc(c23)C(=O)N1N=Cc1ccccc1 [Compound 3] | >500
O=C1c2cccc3cccc(c23)C(=O)N1N=Cc1ccco1 [Compound 14] | 71.8 ± 1.8
O=C1c2cccc3cccc(c23)C(=O)N1N=Cc1cccc([N+](=O)[O-])c1 [Compound 6] | >500
COc1cccc(C=NN2C(=O)c3cccc4cccc(c34)C2=O)c1 [Compound 5] | >500
O=C1c2cccc3cccc(c23)C(=O)N1NC(=S)Nc1ccccc1 [Compound 17] | >500
O=C1C=CC(=O)N1N1C(=O)c2cccc3cccc(c23)C1=O [Compound 20] | >500
O=C1c2cccc3cccc(c23)C(=O)N1N=Cc1ccsc1 [Compound 15] | 56.7 ± 2.6
O=C1c2ccccc2C(=O)N1N1C(=O)c2cccc3cccc(c23)C1=O [Compound 21] | 374 ± 3.7

Same assay, conditions: in comparison with compounds 14–16

Compound | antiviral activity against HSV-2 in words
O=C1c2cccc3cccc(c23)C(=O)N1N=Cc1cccnc1 [Compound 13] | low activity
O=C1c2cccc3cccc(c23)C(=O)N1N=Cc1ccc(O)cc1 [Compound 7] | low activity
O=C1c2ccccc2C(=O)N1N1C(=O)c2cccc3cccc(c23)C1=O [Compound 21] | low activity

Same assay, conditions: ratio of CC50 to EC50

Compound | HSV-2 SI
O=C1c2cccc3cccc(c23)C(=O)N1N=Cc1cccnc1 [Compound 13] | 1.5
O=C1c2cccc3cccc(c23)C(=O)N1N=Cc1ccc(O)cc1 [Compound 7] | 1.9
O=C1c2cccc3cccc(c23)C(=O)N1N=Cc1ccco1 [Compound 14] | 4.5
O=C1c2cccc3cccc(c23)C(=O)N1N=Cc1ccsc1 [Compound 15] | 3.2
O=C1c2ccccc2C(=O)N1N1C(=O)c2cccc3cccc(c23)C1=O [Compound 21] | 1.3

The compounds below were run on Vero cells (assay: cytotoxicity evaluation using viability assay (crystal violet)). Details: 48 h.
Type: cell-based, African green monkey
Procedure: as §1
The Vero cell lines in the cytotoxicity assay were seeded in 96-well plates at a cell concentration of 1 × 10^4 cells per well in 100 µL of the growth medium. Fresh medium containing different concentrations of the tested sample was added after 24 h of seeding. Serial two-fold dilutions of the tested compound were added to confluent cell monolayers dispensed into 96-well, flat-bottomed microtiter plates (Falcon, Jersey, NJ, USA) using a multichannel pipette. The microtiter plates were incubated at 37 °C in a humidified incubator with 5% CO2 for a period of 48 h. Three wells were used for each concentration of the tested sample. Control cells were incubated without test samples and with or without DMSO. The small percentage of DMSO present in the wells (maximal 0.1%) was not found to affect the experiment.
After the end of the incubation period, the viable cell yield was determined by a colorimetric method. In brief, the process of treatment the media with crystal violet solution and measurement of absorbance at 590 nm using a microplate reader was mentioned above. The absorbance was proportional to the number of surviving cells in the culture plate. All the results were corrected for background absorbance detected in wells without added stain. Treated samples were compared with the cell control in the absence of the tested compounds. All experiments were carried out in triplicate. The cell cytotoxicity effect of each tested compound was calculated.
Statistics were done using a one-way ANOVA test, and the percentage cell viability was calculated using Microsoft Excel®, as follows: % Cell viability = [(Mean Abscontrol− Mean Abstest metabolite)/Mean Abscontrol] × 100 where Abs equals the absorbance at 590 nm. The CC50 was estimated from graphic plots and the STATA statistical analysis package was used for the drawing of the dose response curve, in order to calculate CC50. Concerning antiviral evaluation, all experiments and data analysis were performed in RCMB, Al-Azhar University, Cairo, Egypt.

Compound | CC50 [µg/mL]
CN(C)c1ccc(C=NN2C(=O)c3cccc4cccc(c34)C2=O)cc1 [Compound 8] | 289 ± 13 (≈ 842 µM)
O=C1c2cccc3cccc(c23)C(=O)N1N=Cc1cccnc1 [Compound 13] | 458 ± 27 (≈ 1520 µM)
CC=NN1C(=O)c2cccc3cccc(c23)C1=O [Compound 1] | 375 ± 25 (≈ 1570 µM)
O=C1c2cccc3cccc(c23)C(=O)N1n1c(=O)c2cc3c(=O)n(N4C(=O)c5cccc6cccc(c56)C4=O)c(=O)c3cc2c1=O [Compound 24] | 386 ± 17 (≈ 636 µM)
O=C1c2cccc3cccc(c23)C(=O)N1N=Cc1ccc(O)cc1 [Compound 7] | 412 ± 24 (≈ 1300 µM)
CCC=NN1C(=O)c2cccc3cccc(c23)C1=O [Compound 2] | 317 ± 13 (≈ 1260 µM)
O=C1c2cccc3cccc(c23)C(=O)N1N=Cc1ccccc1 [Compound 3] | 196 ± 22 (≈ 653 µM)
O=C1c2cccc3cccc(c23)C(=O)N1N=Cc1ccco1 [Compound 14] | 321 ± 23 (≈ 1110 µM)
O=C1c2cccc3cccc(c23)C(=O)N1N=Cc1cccc([N+](=O)[O-])c1 [Compound 6] | 316 ± 11 (≈ 915 µM)
COc1cccc(C=NN2C(=O)c3cccc4cccc(c34)C2=O)c1 [Compound 5] | 452 ± 9 (≈ 1370 µM)
O=C1c2cccc3cccc(c23)C(=O)N1NC(=S)Nc1ccccc1 [Compound 17] | 518 ± 34 (≈ 1490 µM)
O=C1C=CC(=O)N1N1C(=O)c2cccc3cccc(c23)C1=O [Compound 20] | 220 ± 16 (≈ 753 µM)
O=C1c2cccc3cccc(c23)C(=O)N1N=Cc1ccsc1 [Compound 15] | 180 ± 8 (≈ 588 µM)
O=C1c2ccccc2C(=O)N1N1C(=O)c2cccc3cccc(c23)C1=O [Compound 21] | 490 ± 21 (≈ 1430 µM)

What follows are compounds tested on HSV-1 (assay: cytopathic effect inhibition assay against HSV-1 in Vero cells). Details: Vero cells, 48 h, cytopathic effect inhibition.
Type: cell-based, herpes simplex virus 1 (GHSV-UL46)
Procedure: as §1, §2, §3
EC50 values were determined directly from the curve obtained by plotting the inhibition of the virus yield against the concentration of the samples. […] This index is referred to as a therapeutic index, and it was also used to determine whether a compound warranted further study.

Compound | HSV-1 EC50 [µg/mL]
CN(C)c1ccc(C=NN2C(=O)c3cccc4cccc(c34)C2=O)cc1 [Compound 8] | >500
O=C1c2cccc3cccc(c23)C(=O)N1N=Cc1cccnc1 [Compound 13] | 117.2 ± 3.1
CC=NN1C(=O)c2cccc3cccc(c23)C1=O [Compound 1] | >500
O=C1c2cccc3cccc(c23)C(=O)N1n1c(=O)c2cc3c(=O)n(N4C(=O)c5cccc6cccc(c56)C4=O)c(=O)c3cc2c1=O [Compound 24] | >500
O=C1c2cccc3cccc(c23)C(=O)N1N=Cc1ccc(O)cc1 [Compound 7] | 113 ± 4.6
CCC=NN1C(=O)c2cccc3cccc(c23)C1=O [Compound 2] | >500
O=C1c2cccc3cccc(c23)C(=O)N1N=Cc1ccccc1 [Compound 3] | 158 ± 1.8
O=C1c2cccc3cccc(c23)C(=O)N1N=Cc1ccco1 [Compound 14] | 19.6 ± 0.9
O=C1c2cccc3cccc(c23)C(=O)N1N=Cc1cccc([N+](=O)[O-])c1 [Compound 6] | 174 ± 1.8
COc1cccc(C=NN2C(=O)c3cccc4cccc(c34)C2=O)c1 [Compound 5] | 176 ± 4.6
O=C1c2cccc3cccc(c23)C(=O)N1NC(=S)Nc1ccccc1 [Compound 17] | 236 ± 4.9
O=C1C=CC(=O)N1N1C(=O)c2cccc3cccc(c23)C1=O [Compound 20] | >500
O=C1c2cccc3cccc(c23)C(=O)N1N=Cc1ccsc1 [Compound 15] | 16.2 ± 1.1
O=C1c2ccccc2C(=O)N1N1C(=O)c2cccc3cccc(c23)C1=O [Compound 21] | 102 ± 5.8

Same assay, conditions: in comparison with compounds 14–16

Compound | antiviral activity against HSV-1 in words
O=C1c2cccc3cccc(c23)C(=O)N1N=Cc1ccc(O)cc1 [Compound 7] | good antiviral effect
O=C1c2cccc3cccc(c23)C(=O)N1N=Cc1ccco1 [Compound 14] | most active; also recorded: highest effects
O=C1c2cccc3cccc(c23)C(=O)N1N=Cc1cccc([N+](=O)[O-])c1 [Compound 6] | low activity
COc1cccc(C=NN2C(=O)c3cccc4cccc(c34)C2=O)c1 [Compound 5] | low activity
O=C1c2cccc3cccc(c23)C(=O)N1NC(=S)Nc1ccccc1 [Compound 17] | low activity
O=C1c2cccc3cccc(c23)C(=O)N1N=Cc1ccsc1 [Compound 15] | most active; also recorded: highest effects
O=C1c2ccccc2C(=O)N1N1C(=O)c2cccc3cccc(c23)C1=O [Compound 21] | good antiviral effect

Same assay, conditions: ratio of CC50 to EC50

Compound | HSV-1 SI
O=C1c2cccc3cccc(c23)C(=O)N1N=Cc1cccnc1 [Compound 13] | 3.9
O=C1c2cccc3cccc(c23)C(=O)N1N=Cc1ccc(O)cc1 [Compound 7] | 3.6
O=C1c2cccc3cccc(c23)C(=O)N1N=Cc1ccccc1 [Compound 3] | 1.2
O=C1c2cccc3cccc(c23)C(=O)N1N=Cc1ccco1 [Compound 14] | 16.4
O=C1c2cccc3cccc(c23)C(=O)N1N=Cc1cccc([N+](=O)[O-])c1 [Compound 6] | 1.8
COc1cccc(C=NN2C(=O)c3cccc4cccc(c34)C2=O)c1 [Compound 5] | 2.6
O=C1c2cccc3cccc(c23)C(=O)N1NC(=S)Nc1ccccc1 [Compound 17] | 2.2
O=C1c2cccc3cccc(c23)C(=O)N1N=Cc1ccsc1 [Compound 15] | 11.1
O=C1c2ccccc2C(=O)N1N1C(=O)c2cccc3cccc(c23)C1=O [Compound 21] | 4.8

Same assay, conditions: virus not named; agrees with HSV-1 SI of Table 2

Compound | activity class in terms of SI-values (HSV-1)
O=C1c2cccc3cccc(c23)C(=O)N1N=Cc1cccnc1 [Compound 13] | active
O=C1c2cccc3cccc(c23)C(=O)N1N=Cc1ccc(O)cc1 [Compound 7] | active
COc1cccc(C=NN2C(=O)c3cccc4cccc(c34)C2=O)c1 [Compound 5] | active
O=C1c2cccc3cccc(c23)C(=O)N1NC(=S)Nc1ccccc1 [Compound 17] | active
